Measured values reported in ChEMBL document CHEMBL4476880, “beta-arrestin effectors and compositions and methods of use thereof” (2013).
The source made the active and inactive calls. The calls are words filed in the database; no cut-off is given here.

Key:
Canis familiaris [1] = test: Effect on renal function parameters in paced dog model of acute heart failure assessed as maintenance of urine potassium at 0.01 to 100 ug/kg/min dosed as dose escalation regime with duration of 30 mins for each dose; assay type: functional, organism-based; conditions: Canis lupus familiaris
Canis familiaris [2] = test: Effect on renal function parameters in paced dog model of acute heart failure assessed as maintenance of glomerular filtration rate at 0.01 to 100 ug/kg/min dosed as dose escalation regime with duration of 30 mins for each dose; assay type: functional, organism-based; conditions: Canis lupus familiaris
Canis familiaris [3] = test: Increase in renal blood flow in paced dog model of acute heart failure at 0.01 to 100 ug/kg/min dosed as dose escalation regime with duration of 30 mins for each dose; assay type: functional, organism-based; conditions: Canis lupus familiaris
Canis familiaris [4] = test: Increase in urine sodium excretion in paced dog model of acute heart failure at 0.01 to 100 ug/kg/min dosed as dose escalation regime with duration of 30 mins for each dose; assay type: functional, organism-based; conditions: Canis lupus familiaris
Canis familiaris [5] = test: Suppression of mean arterial pressure in paced dog model of acute heart failure at 0.01 to 100 ug/kg/min dosed as dose escalation regime with duration of 30 mins for each dose; assay type: functional, organism-based; conditions: Canis lupus familiaris
Canis familiaris [6] = test: Increase in urine output in paced dog model of acute heart failure at 0.01 to 100 ug/kg/min dosed as dose escalation regime with duration of 30 mins for each dose; assay type: functional, organism-based; conditions: Canis lupus familiaris
Rattus norvegicus [7] = test: Effect on vascular and cardiac function in normal anesthetized rat assessed as reduction in mean arterial pressure at 0.1 to 10 ug/kg/min, iv; assay type: functional, organism-based
Canis familiaris [8] = test: Suppression of renal vascular resistance in paced dog model of acute heart failure at 0.01 to 100 ug/kg/min dosed as dose escalation regime with duration of 30 mins for each dose; assay type: functional, organism-based; conditions: Canis lupus familiaris
Canis familiaris [9] = test: Suppression of pulmonary capillary wedge pressure in paced dog model of acute heart failure at 0.01 to 100 ug/kg/min dosed as dose escalation regime with duration of 30 mins for each dose; assay type: functional, organism-based; conditions: Canis lupus familiaris
Rattus norvegicus [10] = test: Effect on heart rate in normal anesthetized rat at 0.1 to 10 ug/kg/min, iv; assay type: ADME, organism-based; conditions: in vivo
Canis familiaris [11] = test: Suppression of right arterial pressure in paced dog model of acute heart failure at 0.01 to 100 ug/kg/min dosed as dose escalation regime with duration of 30 mins for each dose; assay type: functional, organism-based; conditions: Canis lupus familiaris
Rattus norvegicus [12] = test: Effect on vascular and cardiac function in normal anesthetized rat assessed as reduction in vaso-constriction at 0.1 to 10 ug/kg/min, iv; assay type: functional, organism-based
Canis familiaris [13] = test: Preservation of cardiac output in paced dog model of acute heart failure at 0.01 to 100 ug/kg/min dosed as dose escalation regime with duration of 30 mins for each dose; assay type: functional, organism-based; conditions: Canis lupus familiaris
Rattus norvegicus [14] = test: Effect on vascular and cardiac function in normal anesthetized rat assessed as preservation of stroke volume at 0.1 to 10 ug/kg/min, iv; assay type: functional, organism-based
Rattus norvegicus [15] = test: Effect on vascular and cardiac function in normal anesthetized rat assessed as increase in slope of end systolic pressure volume relationship at 0.1 to 10 ug/kg/min, iv; assay type: functional, organism-based
Canis familiaris [16] = test: Suppression of systemic vascular resistance in paced dog model of acute heart failure at 0.01 to 100 ug/kg/min dosed as dose escalation regime with duration of 30 mins for each dose; assay type: functional, organism-based; conditions: Canis lupus familiaris
Rattus norvegicus [17] = test: Effect on vascular and cardiac function in normal anesthetized rat assessed as preservation of pre-recruitable stroke work at 0.1 to 10 ug/kg/min, iv; assay type: functional, organism-based

CC[C@H](C)[C@H](NC(=O)[C@H](Cc1ccc(O)cc1)NC(=O)[C@@H](NC(=O)[C@H](CCCNC(=N)N)NC(=O)CNC)C(C)C)C(=O)N[C@@H](Cc1cnc[nH]1)C(=O)N1CCC[C@H]1C(=O)N[C@H](C)C(=O)O [TRV-120027]
Activity (Canis familiaris [1]): Dose-dependent effect | Activity (Canis familiaris [2]): Dose-dependent effect | Activity (Canis familiaris [3]): Dose-dependent effect | Activity (Canis familiaris [4]): Dose-dependent effect | Activity (Canis familiaris [5]): Dose-dependent effect | Activity (Canis familiaris [6]): Dose-dependent effect | Activity (Rattus norvegicus [7]): Dose-dependent effect | Activity (Canis familiaris [8]): Dose-dependent effect | Activity (Canis familiaris [9]): Dose-dependent effect | Activity (Rattus norvegicus [10]): Non-Toxic | Activity (Canis familiaris [11]): Dose-dependent effect | Activity (Rattus norvegicus [12]): Active | Activity (Canis familiaris [13]): Dose-dependent effect | Activity (Rattus norvegicus [14]): Active | Activity (Rattus norvegicus [15]): Active | Activity (Canis familiaris [16]): Dose-dependent effect | Activity (Rattus norvegicus [17]): Active
